In experiment [1] the test system is Ang II induced cADPR production in murine mesangial cells (MMCs). Description: Ang II-induced intracellular cADPR concentration in MMCs. The class given is cell-based. As to conditions: Mus musculus, Mesangial cell, read-out: IC50([CADPR]i, uM) (means ± SEM). How it is done: [cADPR]i was measured using a cyclic enzymatic assay as described previously [Graeff et al., Biochem. J. (2002)361:379-84]. Aplysia californica ADPR-cyclase was purified from […] according to the method described [Lee et al., Cell Regul. (1991)2:203-9]. Briefly, MMCs were treated with 0.3 ml of 0.6 M perchloric acid under sonication after Ang II treatment. Precipitates were removed by centrifugation at 20,000×g for 10 min. Perchloric acid was removed by mixing the aqueous sample with a solution containing 3 volumes of 1,1,2-trichlorotrifluoroethane to 1 volume of tri-n-octlyamine. After centrifugation for 10 min at 1500×g, the aqueous layer was collected and neutralized with 20 mM sodium phosphate (pH 8). To remove all contaminating nucleotides, the samples were incubated with the following hydrolytic enzymes overnight at 37° C.: 0.44 unit/ml nucleotide pyrophosphatase, 12.5 units/ml alkaline phosphatase, 0.0625 unit/ml NADase, and 2.5 mM MgCl2 in 20 mM sodium phosphate buffer (pH 8.0). Enzymes were removed by filtration using Centricon-3 filters. To convert cADPR to NAD^+, the samples (0.1 ml/tube) were incubated with […] of a cycling reagent containing 0.3 mg/ml Aplysia ADPR-cyclase, 30 mM nicotinamide, and 100 mM sodium phosphate (pH 8) at room temperature for 30 min. The samples were further incubated with the cycling reagent (0.1 ml) containing 2% ethanol, […] alcohol dehydrogenase, 20 mM resazurin, 10 mg/ml diaphorase, 10 mM riboflavin 5′-phosphate, 10 mM nicotinamide, 0.1 mg/ml BSA, and 100 mM sodium phosphate (pH 8.0) for 2 h at room temperature. An increase in the resorufin fluorescence was measured at 544 nm excitation and 590 nm emission using a fluorescence plate reader (Molecular Devices Corp., Spectra-Max GEMINI). Various known concentrations of cADPR were also included in the cycling reaction to generate a standard curve. […] Production of cADPR as well as later sustained Ca^2+ signal in response to Ang II was inhibited with different efficacy by these small molecules (Table 1). […] The order of IC50 was 4,4′-DAHB>resveratrol>azobenzene=piceatannol>2,2′-DAHB.

The subject of experiment [2] is Ang II induced [Ca^2+]i increase in murine mesangial cells (MMCs). Description: Ang II-mediated [Ca2+]i increase in MMCs. The class given is cell-based. Conditions: Mus musculus, Mesangial cell, later sustained Ca2+ signal induced by 150 nM Ang II, 300 s, read-out: IC50([Ca^2+]i, uM) (means ± SEM). The protocol:
Changes in [Ca^2+]i in MMCs were determined as described previously [Kim et al., Exp. Mol. Med. (2006)38:535-45]. Briefly, MMCs cultured on confocal dishes for 48 h at a concentration of 10^4 cells/dish were washed with Hank's balanced salt solution (HBSS) (2 mM CaCl2, 145 mM NaCl, 5 mM KCl, 1 mM MgCl2, 5 mM D-glucose, and 20 mM HEPES, pH 7.3) and then loaded with […] Fluo 3-AM (Molecular Probe, Eugene, Oreg.). Changes in Ca^2+ fluorescence were determined at 488 nm/530 nm (excitation/emission) by air-cooled argon laser system. [Ca^2+]i was calculated using a Kd of 325 nM for Fluo 3-AM by the method of Tsien et al. (1982).

The test system of another experiment is STZ diabetic mice. Description: Diabetic nephropathy in STZ diabetes mouse model. The class given is in vivo. Conditions: 45 μg/kg i.p. once a day for 6 weeks, mean SE, n = 6. The protocol: Male mice, weighing 20 25 g, were made diabetic by a single intravenous injection of STZ (65 mg/kg body weight) in 0.05 M citrate buffer (pH 4.8). At the same day, the control mice were injected with the citrate buffer. After 2 days, induction of diabetes was confirmed by tail blood glucose level measurement by using the LifeScan One Touch glucometer (Johnson & Johnson). The diabetic mice (>16 mM blood glucose) were randomly divided into two groups; 6 mice per group treated with vehicle (0.1% DMSO in saline, 100 μl) or DHAB (45 μg/kg body weight in 0.1% DMSO in saline, 100 μl) and resveratrol (45 μg/kg body weight in 0.1% DMSO in saline, 100 μl) administered by intraperitoneal injection once a day for 6 weeks. The control mice were 6 mice per group treated with the vehicle. On day 39, the mice were detained in individual metabolic cages for 24 h for urine collection. On day 42, the mice were anesthetized with diethyl ether, and blood samples were taken from the abdominal aorta. Bilateral kidneys were rapidly removed and weighed. Urine was gravimetrically collected, and urinary albumin concentrations were determined with an enzyme-linked immunosorbent assay using a murine microalbuminuria kit (Albuwell; Exocell, Philadelphia, Pa.). Urine and serum creatinine levels were measured using the QuantiChrom Creatinine Assay Kit (BioAssay Systems, Hayward, Calif.), following the manufacturer's protocol.

The mark [3] stands for this setting: cADPR production induced by 150 nM Ang II, 90 s, MMCs.

Each structure is given as a SMILES string. Where two headings read alike, the source gives them in different places.

For the molecule `c1ccc(N=Nc2ccccc2)cc1` [Azobenzene], the figures for the IC50 in experiment [1] and in experiment [2] were 13 ± 2.1 µM and 10 ± 1.1 µM, respectively.
Consider `Oc1cc(O)cc(/C=C/c2ccc(O)c(O)c2)c1` [Piceatannol, 3,5,3′,4′-tetrahydroxy-trans-stilbene], for which the IC50 in experiment [1] (setting [3]) turned out to be 8.9 ± 1.5 µM; in experiment [2], 10 ± 1.7 µM.
On to `Oc1ccc(/C=C/c2cc(O)cc(O)c2)cc1` [Resveratrol, 3,5,4′-trihydroxy-trans-stilbene], for which, in experiment [1] (setting [3]), the IC50 was 5.5 ± 0.5 µM. The Urine output in the experiment on STZ diabetic mice (24 h metabolic cage) was 2.55 ± 2.09 mL/day. Also, in the experiment on STZ diabetic mice, the “Body Weight” value turned out to be 22.6 ± 0.70 g, the Food intake was determined as 3.12 ± 0.79 g, the Plasma glucose stood at 441 ± 48.7 mg/dL and the “Urinary Albumin” value was found to be 2.97 ± 2.11 µg/day. The molecule further came in with a Water intake with STZ diabetic mice of 5.67 ± 3.21 mL. Also, in experiment [2], the IC50 worked out at 5 ± 0.8 µM.

For orientation: IC50 means the concentration needed to halve the response being measured.

Source of the values: patent US8314082B2, “Stilbene derivatives for ADP-ribosyl cyclase inhibitors” (Industrial Cooperation Foundation Chonbuk National …, priority 2006, dated 2012).
